Test results as given in ChEMBL document CHEMBL2331098, “Unprecedented polyketides from a marine sponge-associated Stachylidium sp” (J Nat Prod, 2013).
Active and inactive are the calls of the source.

Tests used:
[1] = target: Alpha-2C adrenergic receptor (Homo sapiens) (UniProt P18825); assay: Displacement of [3H]clonidine from alpha2C receptor (unknown origin) at 10 uM
[2] = target: D(2) dopamine receptor (Homo sapiens) (UniProt P14416); assay: Displacement of [3H]N-methylspiperone from D2 receptor (unknown origin) at 10 uM
[3] = target: 5-hydroxytryptamine receptor 1A (Homo sapiens) (UniProt P08908); assay: Displacement of [3H]8-OH-DPAT from 5-HT1A receptor (unknown origin) at 10 uM
[4] = target: 5-hydroxytryptamine receptor 1B (Homo sapiens) (UniProt P28222); assay: Displacement of [3H][…] from 5-HT1B receptor (unknown origin) at 10 uM
Chain of 5-hydroxytryptamine receptor 1B (Homo sapiens) (P28222 whole entry): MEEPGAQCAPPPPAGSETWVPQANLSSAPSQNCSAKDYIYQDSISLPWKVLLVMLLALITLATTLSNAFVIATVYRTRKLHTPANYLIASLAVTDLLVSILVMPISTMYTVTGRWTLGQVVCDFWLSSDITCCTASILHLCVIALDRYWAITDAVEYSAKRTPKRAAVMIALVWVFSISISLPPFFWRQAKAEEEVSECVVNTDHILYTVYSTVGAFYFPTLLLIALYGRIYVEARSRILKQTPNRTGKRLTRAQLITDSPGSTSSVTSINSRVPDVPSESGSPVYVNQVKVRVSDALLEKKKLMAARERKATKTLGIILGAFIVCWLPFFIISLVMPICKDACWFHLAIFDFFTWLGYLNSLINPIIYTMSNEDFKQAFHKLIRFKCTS

[5] = target: 5-hydroxytryptamine receptor 2A (Homo sapiens) (UniProt P28223); assay: Displacement of [3H]ketanserin from 5-HT2A receptor (unknown origin) at 10 uM
[6] = target: 5-hydroxytryptamine receptor 1E (Homo sapiens) (UniProt P28566); assay: Displacement of [3H]5-HT from 5-HT1E receptor (unknown origin) at 10 uM
[7] = target: Histamine H1 receptor (Homo sapiens) (UniProt P35367); assay: Displacement of [3H]pyrilamine from H1 receptor (unknown origin) at 10 uM
Aspergillus ruber = assay: Antimicrobial activity against Eurotium rubrum; format: functional, organism-based
[8] = target: Mu-type opioid receptor (Homo sapiens) (UniProt P35372); assay: Displacement of [3H]DAMGO from mu opioid receptor (unknown origin) at 10 uM
Priestia megaterium = assay: Antimicrobial activity against Bacillus megaterium; format: functional, organism-based
[9] = target: Histamine H4 receptor (Homo sapiens) (UniProt Q9H3N8); assay: Displacement of [3H]histamine from H4 receptor (unknown origin) at 10 uM
Chain of Histamine H4 receptor (Homo sapiens) (Q9H3N8 whole entry): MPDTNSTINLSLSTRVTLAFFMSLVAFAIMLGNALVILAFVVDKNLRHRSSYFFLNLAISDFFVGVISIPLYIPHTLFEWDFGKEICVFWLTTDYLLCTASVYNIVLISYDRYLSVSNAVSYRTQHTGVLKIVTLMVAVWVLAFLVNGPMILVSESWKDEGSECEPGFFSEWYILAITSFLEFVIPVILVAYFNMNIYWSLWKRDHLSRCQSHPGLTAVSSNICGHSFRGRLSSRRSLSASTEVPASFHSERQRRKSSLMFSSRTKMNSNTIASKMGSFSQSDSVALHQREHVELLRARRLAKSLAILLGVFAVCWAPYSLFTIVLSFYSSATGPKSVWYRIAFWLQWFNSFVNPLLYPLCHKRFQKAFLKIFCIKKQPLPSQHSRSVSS

Rattus norvegicus = species on record: Rattus norvegicus; assay: Displacement of [3H]flunitrazepam from rat brain BZP receptor (unknown origin) at 10 uM
[10] = target: 5-hydroxytryptamine receptor 1D (Homo sapiens) (UniProt P28221); assay: Displacement of [3H][…] from 5-HT1D receptor (unknown origin) at 10 uM
[11] = target: 5-hydroxytryptamine receptor 7 (Homo sapiens) (UniProt P34969); assay: Displacement of [3H]LSD from 5-HT7 receptor (unknown origin) at 10 uM
[12] = target: Alpha-2B adrenergic receptor (Homo sapiens) (UniProt P18089); assay: Displacement of [3H]clonidine from alpha2B receptor (unknown origin) at 10 uM
Chain of Alpha-2B adrenergic receptor (Homo sapiens) (P18089 whole entry): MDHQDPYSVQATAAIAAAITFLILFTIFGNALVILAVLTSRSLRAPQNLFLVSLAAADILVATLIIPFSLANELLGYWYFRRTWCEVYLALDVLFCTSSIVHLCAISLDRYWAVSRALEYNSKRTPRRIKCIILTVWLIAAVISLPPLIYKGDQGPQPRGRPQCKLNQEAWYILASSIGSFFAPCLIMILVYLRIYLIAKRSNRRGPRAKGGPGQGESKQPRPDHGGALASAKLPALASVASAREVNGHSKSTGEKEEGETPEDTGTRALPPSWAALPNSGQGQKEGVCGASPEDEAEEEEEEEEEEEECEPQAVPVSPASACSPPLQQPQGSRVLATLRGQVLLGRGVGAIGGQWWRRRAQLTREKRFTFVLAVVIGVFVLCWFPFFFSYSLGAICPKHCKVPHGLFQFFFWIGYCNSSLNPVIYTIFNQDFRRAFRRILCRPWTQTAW

[13] = target: Alpha-1A adrenergic receptor (Homo sapiens) (UniProt P35348); assay: Displacement of [3H]prazosin from alpha1A receptor (unknown origin) at 10 uM
[14] = target: 5-hydroxytryptamine receptor 2B (Homo sapiens) (UniProt P41595); assay: Displacement of [3H]LSD from 5-HT2B receptor (unknown origin) at 10 uM
[15] = target: Alpha-1D adrenergic receptor (Homo sapiens) (UniProt P25100); assay: Displacement of radiolabeled ligand from alpha1D receptor (unknown origin) at 10 uM
[16] = target: Alpha-1B adrenergic receptor (Homo sapiens) (UniProt P35368); assay: Displacement of [3H]prazosin from alpha1B receptor (unknown origin) at 10 uM
[17] = target: 5-hydroxytryptamine receptor 6 (Homo sapiens) (UniProt P50406); assay: Displacement of [3H]LSD from 5-HT6 receptor (unknown origin) at 10 uM
[18] = target: Beta-1 adrenergic receptor (Homo sapiens) (UniProt P08588); assay: Displacement of [125I]iodopindolol from beta1 receptor (unknown origin) at 10 uM
Chain of Beta-1 adrenergic receptor (Homo sapiens) (P08588 whole entry, looked up): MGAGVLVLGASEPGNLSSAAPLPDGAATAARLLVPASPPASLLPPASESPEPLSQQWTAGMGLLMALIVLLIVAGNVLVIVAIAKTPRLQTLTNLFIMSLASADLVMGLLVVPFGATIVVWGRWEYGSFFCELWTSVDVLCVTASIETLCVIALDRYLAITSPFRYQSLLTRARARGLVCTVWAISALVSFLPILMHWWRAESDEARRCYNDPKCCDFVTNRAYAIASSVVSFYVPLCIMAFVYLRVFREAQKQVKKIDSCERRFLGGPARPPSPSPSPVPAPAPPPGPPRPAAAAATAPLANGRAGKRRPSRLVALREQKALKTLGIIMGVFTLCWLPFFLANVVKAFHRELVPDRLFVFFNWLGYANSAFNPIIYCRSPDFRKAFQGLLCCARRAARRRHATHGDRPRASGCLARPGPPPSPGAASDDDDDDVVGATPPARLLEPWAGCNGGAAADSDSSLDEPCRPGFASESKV

[19] = target: Histamine H3 receptor (Homo sapiens) (UniProt Q9Y5N1); assay: Displacement of [3H]alpha-methylhistamine from H3 receptor (unknown origin) at 10 uM
[Chlorella] fusca = Antimicrobial activity against Chlorella fusca; format: functional, organism-based; settings: Scenedesmus fuscus
[20] = target: Sodium-dependent noradrenaline transporter (Homo sapiens) (UniProt P23975); assay: Displacement of [3H]nisoxetine from NET (unknown origin) at 10 uM
[21] = target: 5-hydroxytryptamine receptor 5A (Homo sapiens) (UniProt P47898); assay: Displacement of [3H]LSD from 5-HT5A receptor (unknown origin) at 10 uM
[22] = target: Muscarinic acetylcholine receptor M3 (Homo sapiens) (UniProt P20309); assay: Displacement of [3H]QNB from M3 receptor (unknown origin) at 10 uM
[23] = target: D(1A) dopamine receptor (Homo sapiens) (UniProt P21728); assay: Displacement of [3H][…] from D1 receptor (unknown origin) at 10 uM
[24] = target: Muscarinic acetylcholine receptor M2 (Homo sapiens) (UniProt P08172); assay: Displacement of [3H]QNB from M2 receptor (unknown origin) at 10 uM
[25] = target: Beta-3 adrenergic receptor (Homo sapiens) (UniProt P13945); assay: Displacement of [125I]iodopindolol from beta3 receptor (unknown origin) at 10 uM
[26] = target: 5-hydroxytryptamine receptor 2C (Homo sapiens) (UniProt P28335); assay: Displacement of [3H]mesulergine from 5-HT2C receptor (unknown origin) at 10 uM
Mycotypha microspora = assay: Antimicrobial activity against Mycotypha microspora; format: functional, organism-based
Microbotryum violaceum = assay: Antimicrobial activity against Microbotryum violaceum; format: functional, organism-based
[27] = target: GABA-A receptor; agonist GABA site (Homo sapiens) (UniProt P14867+P47870+P28472+P48169+P34903+P18505+P47869+P31644+Q16445); assay: Displacement of [3H]muscimol from GABAA receptor (unknown origin) at 10 uM; format: protein-complex assay
[28] = target: 5-hydroxytryptamine receptor 3A (Homo sapiens) (UniProt P46098); assay: Displacement of [3H]LY278584 from 5-HT3 receptor (unknown origin) at 10 uM
[29] = target: Alpha-2A adrenergic receptor (Homo sapiens) (UniProt P08913); assay: Displacement of [3H]clonidine from alpha2A receptor (unknown origin) at 10 uM
[30] = target: D(4) dopamine receptor (Homo sapiens) (UniProt P21917); assay: Displacement of [3H]N-methylspiperone from D4 receptor (unknown origin) at 10 uM
[31] = target: D(1B) dopamine receptor (Homo sapiens) (UniProt P21918); assay: Displacement of [3H][…] from D5 receptor (unknown origin) at 10 uM
[32] = target: Muscarinic acetylcholine receptor M1 (Homo sapiens) (UniProt P11229); assay: Displacement of [3H]QNB from M1 receptor (unknown origin) at 10 uM
[33] = target: Sodium-dependent dopamine transporter (Homo sapiens) (UniProt Q01959); assay: Displacement of [3H]WIN35428 from DAT (unknown origin) at 10 uM
[34] = target: Sigma non-opioid intracellular receptor 1 (Homo sapiens) (UniProt Q99720); assay: Displacement of [3H]pentazocine from sigma1 receptor (unknown origin) at 10 uM
[35] = target: Sodium-dependent serotonin transporter (Homo sapiens) (UniProt P31645); assay: Displacement of [3H]citalopram from SERT (unknown origin) at 10 uM
Chain of Sodium-dependent serotonin transporter (Homo sapiens) (P31645 whole entry, looked up): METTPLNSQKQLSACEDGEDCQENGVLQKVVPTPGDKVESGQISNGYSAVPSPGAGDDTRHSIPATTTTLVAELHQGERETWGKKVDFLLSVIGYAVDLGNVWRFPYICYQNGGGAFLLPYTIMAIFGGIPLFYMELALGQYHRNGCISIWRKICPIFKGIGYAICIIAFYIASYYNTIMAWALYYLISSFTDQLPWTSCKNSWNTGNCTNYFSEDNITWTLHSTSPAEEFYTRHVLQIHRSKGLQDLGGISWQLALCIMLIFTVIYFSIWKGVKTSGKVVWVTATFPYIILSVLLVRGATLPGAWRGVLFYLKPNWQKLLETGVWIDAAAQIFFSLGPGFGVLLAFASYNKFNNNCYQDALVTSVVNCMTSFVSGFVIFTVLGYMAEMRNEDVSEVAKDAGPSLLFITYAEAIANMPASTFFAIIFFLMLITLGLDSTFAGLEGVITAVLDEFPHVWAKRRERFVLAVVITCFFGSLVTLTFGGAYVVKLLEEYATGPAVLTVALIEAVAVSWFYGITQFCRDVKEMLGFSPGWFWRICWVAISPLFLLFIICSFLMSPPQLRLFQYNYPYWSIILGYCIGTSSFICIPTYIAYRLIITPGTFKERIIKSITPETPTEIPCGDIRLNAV

[36] = target: Muscarinic acetylcholine receptor M5 (Homo sapiens) (UniProt P08912); assay: Displacement of [3H]QNB from M5 receptor (unknown origin) at 10 uM
Chain of Muscarinic acetylcholine receptor M5 (Homo sapiens) (P08912 whole entry): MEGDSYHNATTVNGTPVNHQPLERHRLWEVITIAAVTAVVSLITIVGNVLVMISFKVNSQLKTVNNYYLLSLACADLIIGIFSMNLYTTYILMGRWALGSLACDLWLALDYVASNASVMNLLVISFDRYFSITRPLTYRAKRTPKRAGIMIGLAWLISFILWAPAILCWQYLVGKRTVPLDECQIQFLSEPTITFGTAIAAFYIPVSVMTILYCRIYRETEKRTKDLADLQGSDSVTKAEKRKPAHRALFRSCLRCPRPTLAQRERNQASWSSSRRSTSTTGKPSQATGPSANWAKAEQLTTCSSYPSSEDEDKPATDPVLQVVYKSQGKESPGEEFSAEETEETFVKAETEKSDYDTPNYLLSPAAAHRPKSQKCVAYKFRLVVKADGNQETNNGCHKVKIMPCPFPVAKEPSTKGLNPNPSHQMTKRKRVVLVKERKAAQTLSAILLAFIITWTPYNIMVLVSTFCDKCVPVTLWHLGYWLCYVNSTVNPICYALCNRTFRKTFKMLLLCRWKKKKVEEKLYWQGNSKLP

[37] = target: Histamine H2 receptor (Homo sapiens) (UniProt P25021); assay: Displacement of [3H]tiotidine from H2 receptor (unknown origin) at 10 uM
Chain of Histamine H2 receptor (Homo sapiens) (P25021 whole entry): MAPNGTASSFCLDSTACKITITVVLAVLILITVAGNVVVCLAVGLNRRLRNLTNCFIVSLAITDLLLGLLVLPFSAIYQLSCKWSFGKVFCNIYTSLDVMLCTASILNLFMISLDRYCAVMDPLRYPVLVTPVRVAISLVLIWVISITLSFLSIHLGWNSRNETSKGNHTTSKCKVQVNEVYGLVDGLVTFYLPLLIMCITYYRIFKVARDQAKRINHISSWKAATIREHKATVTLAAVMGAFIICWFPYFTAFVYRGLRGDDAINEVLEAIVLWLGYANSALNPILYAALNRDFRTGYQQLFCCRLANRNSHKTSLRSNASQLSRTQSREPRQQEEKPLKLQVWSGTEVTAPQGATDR

[38] = target: Muscarinic acetylcholine receptor M4 (Homo sapiens) (UniProt P08173); assay: Displacement of [3H]QNB from M4 receptor (unknown origin) at 10 uM
Homo sapiens = species on record: Homo sapiens; assay: Displacement of [3H]DTG from sigma2 receptor (unknown origin) at 10 uM
Escherichia coli = assay: Antimicrobial activity against Escherichia coli; format: functional, organism-based
[39] = target: Beta-2 adrenergic receptor (Homo sapiens) (UniProt P07550); assay: Displacement of [125I]iodopindolol from beta2 receptor (unknown origin) at 10 uM
[40] = target: Kappa-type opioid receptor (Homo sapiens) (UniProt P41145); assay: Displacement of [3H]U69593 from kappa opioid receptor (unknown origin) at 10 uM
Chain of Kappa-type opioid receptor (Homo sapiens) (P41145 whole entry): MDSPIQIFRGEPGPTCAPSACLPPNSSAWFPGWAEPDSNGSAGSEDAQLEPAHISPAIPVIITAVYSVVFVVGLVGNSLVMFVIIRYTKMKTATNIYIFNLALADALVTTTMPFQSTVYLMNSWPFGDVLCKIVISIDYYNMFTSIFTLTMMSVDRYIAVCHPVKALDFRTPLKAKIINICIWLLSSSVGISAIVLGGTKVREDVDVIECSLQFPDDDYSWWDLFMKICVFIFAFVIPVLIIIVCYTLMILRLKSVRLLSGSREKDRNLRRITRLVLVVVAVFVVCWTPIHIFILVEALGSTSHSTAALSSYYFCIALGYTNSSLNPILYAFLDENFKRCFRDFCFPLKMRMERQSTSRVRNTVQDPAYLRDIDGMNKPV

[41] = target: Delta-type opioid receptor (Homo sapiens) (UniProt P41143); assay: Displacement of [3H]DADLE from delta opioid receptor (unknown origin) at 10 uM
Chain of Delta-type opioid receptor (Homo sapiens) (P41143 whole entry): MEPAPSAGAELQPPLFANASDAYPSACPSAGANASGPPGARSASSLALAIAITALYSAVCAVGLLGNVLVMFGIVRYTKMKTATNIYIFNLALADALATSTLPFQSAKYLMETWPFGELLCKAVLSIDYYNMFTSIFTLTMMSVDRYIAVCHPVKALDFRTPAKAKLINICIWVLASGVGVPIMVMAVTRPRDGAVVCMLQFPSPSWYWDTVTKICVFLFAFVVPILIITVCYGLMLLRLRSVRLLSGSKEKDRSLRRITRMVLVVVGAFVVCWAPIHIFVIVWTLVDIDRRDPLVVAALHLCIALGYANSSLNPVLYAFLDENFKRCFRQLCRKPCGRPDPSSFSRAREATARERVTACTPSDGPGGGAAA

[42] = target: D(3) dopamine receptor (Homo sapiens) (UniProt P35462); assay: Displacement of [3H]N-methylspiperone from D3 receptor (unknown origin) at 10 uM
Chain of D(3) dopamine receptor (Homo sapiens) (P35462 whole entry): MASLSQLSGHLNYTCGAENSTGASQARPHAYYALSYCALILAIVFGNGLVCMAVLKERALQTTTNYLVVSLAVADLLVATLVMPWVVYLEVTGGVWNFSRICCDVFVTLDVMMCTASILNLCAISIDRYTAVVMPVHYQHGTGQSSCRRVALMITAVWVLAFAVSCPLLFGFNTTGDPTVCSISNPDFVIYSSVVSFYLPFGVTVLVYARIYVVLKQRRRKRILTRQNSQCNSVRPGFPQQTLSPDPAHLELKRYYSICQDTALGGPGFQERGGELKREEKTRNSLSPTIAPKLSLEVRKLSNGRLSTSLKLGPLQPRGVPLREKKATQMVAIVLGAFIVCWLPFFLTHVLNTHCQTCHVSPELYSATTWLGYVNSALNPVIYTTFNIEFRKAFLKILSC

Chain of Alpha-2C adrenergic receptor (Homo sapiens) (P18825 whole entry): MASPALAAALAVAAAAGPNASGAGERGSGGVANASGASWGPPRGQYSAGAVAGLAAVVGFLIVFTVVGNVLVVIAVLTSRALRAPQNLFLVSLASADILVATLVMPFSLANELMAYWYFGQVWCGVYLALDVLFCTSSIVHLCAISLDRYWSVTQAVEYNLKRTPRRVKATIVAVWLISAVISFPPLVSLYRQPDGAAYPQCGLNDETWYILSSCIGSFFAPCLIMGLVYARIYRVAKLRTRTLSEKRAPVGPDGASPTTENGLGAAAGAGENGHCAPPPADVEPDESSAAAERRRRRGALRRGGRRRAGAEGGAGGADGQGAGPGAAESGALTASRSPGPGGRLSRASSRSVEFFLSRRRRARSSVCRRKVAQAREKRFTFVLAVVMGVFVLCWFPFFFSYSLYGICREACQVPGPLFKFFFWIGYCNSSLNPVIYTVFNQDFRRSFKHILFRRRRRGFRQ

COCc1c(C(C)O)cc(O)c(C)c1OC (stereo not given)
inactive: inhibition [1] | inhibition [2] | inhibition [3] | inhibition [4] | inhibition [5] | inhibition [6] | inhibition [7] | Activity (Aspergillus ruber) | inhibition [8] | Activity (Priestia megaterium) | inhibition [9] | inhibition (Rattus norvegicus) | inhibition [10] | inhibition [11] | inhibition [12] | inhibition [13] | inhibition [14] | inhibition [15] | inhibition [16] | inhibition [17] | inhibition [18] | inhibition [19] | Activity ([Chlorella] fusca) | inhibition [20] | inhibition [21] | inhibition [22] | inhibition [23] | inhibition [24] | inhibition [25] | inhibition [26] | Activity (Mycotypha microspora) | Activity (Microbotryum violaceum) | inhibition [27] | inhibition [28] | inhibition [29] | inhibition [30] | inhibition [31] | inhibition [32] | inhibition [33] | inhibition [34] | inhibition [35] | inhibition [36] | inhibition [37] | inhibition [38] | inhibition (Homo sapiens) | Activity (Escherichia coli) | inhibition [39] | inhibition [40] | inhibition [41] | inhibition [42]
